Source: ChEMBL document CHEMBL5724914, “Linking interpersonal differences in gut microbiota composition and drug biotransformation activity” (2024)

Key:
[1] = human gut metagenome, 24 h, 2 µM
[2] = human gut metagenome, 24 h, 2 µM; remark: listed apart in the source
[3] = (§1) The drug is tested on Z-013 corresponding to rabbit gut metagenome with ENA study accession number: PRJEB37062 and ENA sample accession number: ERS12561813 for biotransformation under anaerobic condition. The drug concentrations were measured over 9 timepoints collected between 0 and 24 hours of incubation by liquid-chromatography-coupled mass spectrometry (LC–MS); conditions: 2 µM
[4] = as §1, with “WLS-069” for “Z-013”, “human” for “rabbit”, “ERS12561748” for “ERS12561813”; conditions: 2 µM
[5] = human gut metagenome, 24 h, 2 µM; remark: listed apart in the source
[6] = human gut metagenome, 24 h, 2 µM; remark: listed apart in the source
[7] = as §1, with “WLS-077” for “Z-013”, “human” for “rabbit”, “ERS12561750” for “ERS12561813”; conditions: 2 µM
[8] = human gut metagenome, 24 h, 2 µM; remark: listed apart in the source
[9] = human gut metagenome, 24 h, 2 µM; remark: listed apart in the source

Measured: Bacterial Biotransformation
Also: call rule not given here.

C[C@@H](c1ncncc1F)[C@](O)(Cn1cncn1)c1ccc(F)cc1F [VORICONAZOLE]
Compound NOT metabolized: [3]
Compound metabolized: all other assays above

CCN(C(C)=O)c1cccc(-c2ccnc3c(C#N)cnn23)c1 [ZALEPLON]
Compound NOT metabolized: [3] | [6]
Compound metabolized: all other assays above
